Data on 1 molecule can be found in patent publication US20070299084A1, “Indole Derivatives Useful for Treating Resistance to Antitumor Agents” (NIKEM RESE S.R.L., priority 2004, published 2007).

The subject of test [1] is HCT116 cells (human colon carcinoma). Description: Antiproliferative activity, 72 h treatment, SRB assay, HCT116. In kind it is cell-based. How it is done:
HCT116 maintained in RPMI 1640 medium+10% FCS.
The cells (HT29 and HT29/Mit:. 40,000 cells/ml, LoVo, LoVo/Dx and HCT116: 50,000 cells/ml) are seeded in 100 μl of the respective culture media in 96-well plates. 24 hours after seeding, an aliquot (10 μl) of drug at the various concentrations is added. In the samples in which the effect of the combination of two compounds is to be tested the inhibitor is added immediately before the cytotoxic. For each dose or combination of doses/drugs the effect of the treatment is determined in 4-8 replicates.
After 72 hours of treatment the antiproliferative effect is evaluated using the sulforhodamine B (SRB) assay: the cells are fixed by adding 25 μl of 50% TCA to each well and left for 1 hour at 4° C. After washing them with water and allowing them to dry, 100 μl of 0.4% SRB in 1% acetic acid are added and left for 30 minutes at room temperature. After 4 washes in 1% acetic acid, they are left to dry, then the dye fixed by the proteins is dissolved under basic conditions with 100 μl 10 mM cold Tris and the solution is read using a spectrophotometer at 550 nm.
Percentage cell growth is calculated as the optical density of treated samples compared to the optical density of controls (untreated cells).
The Combination Index (C.I.) was determined according to Kern's method, 1988 (who continued from Drewinko B, 1976) (Kern D. H., Cancer Res. 48, 117-121, 1988; Drewinko B., Cancer Biochem. Biophys. 1, 187-195, 1976) by means of the following formula: […], where SFa and SFb are the fractions of cells surviving to treatment with compound a and b, respectively; SFab is the fraction surviving to the combination of compounds a and b.
On the technique in general: The SRB assay estimates cell density from bound dye.

For test [2], the system named is LoVo cells (human colon carcinoma). The test is described as follows: Antiproliferative activity, 72 h treatment, SRB assay, LoVo. In kind it is cell-based. The source says:
LoVo and LoVo/Dx (line obtained by prolonged exposure to doxorubicin and characterised by overerexpression of P-glycoprotein, which confers resistance to doxorubicin): maintained in HAM-F12 medium+10% FCS.

Test [3] deals with SH-SY5Y cells (human neuroblastoma). The test is described as follows: Antiproliferative activity, 48 h treatment, ATPlite luminescence assay, SH-SY5Y. In kind it is cell-based. The note with it: Homo sapiens, SH-SY5Y, 48 h, read-out: Antiproliferative activity (IC50 ± S.D., μM) SHSY-5Y. The procedure:
SH-SY5Y and SK-N-BE(2): maintained in HAM-F12 medium+10% FCS.
24 hours after seeding, an aliquot (10 μl) of the drug at the various concentrations is added (for each concentration there are 3 replicates). After 48 hours of treatment the antiproliferative effect is evaluated with a luminescence assay (Perkin Elmer Life Sciences ATPlite):
50 μl of a lysis solution are added to each well followed by an equal volume of a solution containing luciferase and D-luciferin. The ATP present in all the metabolically active cells brings about the transformation reaction of D-luciferin, catalysed by luciferase, to produce a luminescent signal as described in the following scheme: ATP+D-luciferin+O2→Oxyluciferin+AMP+PPi+CO2+Light
The luminescence produced (expressed in counts per second, CPS) is measured by means of a microplate scintillation analyzer (Perkin Elmer Life Sciences Top Count).
Percentage inhibition of luminescence in the treated cells compared to the control is calculated; concentration-response curves are then analysed using Grafit v.5.0.
A general note: ATP-based viability assays read luminescence as a measure of living cells.

For another test, the system named is H460 primary tumor. The test is described as follows: H460 human non-small cell lung carcinoma xenograft, antitumor activity on the primary tumor. In kind it is in vivo, athymic Swiss nude mice. The note with it: H460 s.c., p.o. for 8 weeks, topotecan 1 mg/kg, compound of example 2 30 mg/kg. How it is done:
Female athymic Swiss nude mice (8-10 weeks old) (Charles River, Calco, Italy) were used for the experiments, as described above.
H460 cells were injected i.p. into nude mice, adapted to grow as ascitis and maintained in vivo by i.p. passages (5×10^6 cells/mouse in 0.5 ml PBS) (Pratesi G., Br. J. Cancer 63, 71-74, 1991). Briefly, cells were collected from the donor mice about 7 days after inoculum. After washing, cell number and viability were determined by trypan blue exclusion. Such procedure allowed to obtain a single cell suspension easily available for s.c or i.v. injection.
The effects of the compounds of the invention and/or topotecan on the growth of primary tumors and spontaneous lung metastasis were tested in mice inoculated s.c. in the right flank with H460 ascitic tumor cells (2×10^6/mouse). Each control or drug-treated group included 9-11 mice. The s.c. tumor growth was followed by biweekly measurements of tumor diameters with a Vernier caliper. Drug treatment was delivered orally, for 8 weeks, from day 1. Topotecan was delivered at the dose of 1 mg/kg and compounds of the invention were delivered at the dose of 30 mg/kg; in the combination group the compounds of the invention were delivered almost 1 hour after topotecan treatment. Control mice were solvent-treated orally in parallel with drug treatments.
Drug efficacy was assessed as mean percentage tumor weight inhibition in drug-treated versus control mice expressed as tumor weight inhibition % (TWI %)=100−(mean tumor weight treated/mean tumor weight control×100), evaluated during and after drug treatment. Drug tolerability was assessed in tumor-bearing mice as either lethal toxicity, i.e., any death in treated mice occurring before any control death, or percentage body weight loss (BWL %)=100−(body weight on day x/body weight on day 1×100), where x represents a day after or during the treatment period.

Test [4] has as its system H460 cells (human lung carcinoma). The test is described as follows: Invasion assay (Matrigel chemoinvasion). In kind it is cell-based. The procedure: (§1) Human Lung Carcinoma:H460: maintained in RPMI1640 medium+10% FCS.
(§2) H460 cells were seeded in complete medium and treated with different compound concentrations for 24 h. Then, cells were harvested and transferred to 24-well Transwell chambers (Costar) in serum-free medium in the following ways:
invasion assay: Transwell membranes were coated with 12.5 μg/well of Matrigel (BD Biosciences) and dried for 24 h. After this, 2.4×10^5 cells/well were seeded onto the artificial basement membrane in upper chamber, and drug was added as described for migration assay. After 24 h of incubation at 37° C., cells that invaded the Matrigel and migrated to the lower chamber were stained and counted as described for migration assay.

Test [5] shares this test system. Description: Migration assay (Transwell chemotaxis). In kind it is cell-based. To be noted: after 24 h incubation. How it is done:
as §1, §2
migration assay: 1.2×10^5 cells/well were seeded in the upper chamber, and the drug was added, in the same concentrations utilized before, in both upper and lower chambers. After 4 h of incubation at 37° C., migrated cells were fixed in 95% ethanol, stained with a 2% crystal violet in 70% ethanol solution, and counted by an inverted microscope.

Marks after values point to notes of the source that are not given here.

In general, IC50 refers to the point on the concentration scale where inhibition reaches its midpoint. By inhibition is commonly meant the percentage by which the read-out fell short of the control.

As to `CCOc1cc(C(=O)NC2CC(C)(C)NC(C)(C)C2)ccc1-c1cc2cc(Cl)c(Cl)cc2[nH]1` [Example 2], the Interaction with cisplatin entry in test [1] (HCT116 line, subtoxic and subactive concentrations) was “significant synergistic effect”. Also, the IC50 in test [1] (Homo sapiens, HCT-116, 72 h, read-out: Antiproliferative activity (IC50 ± S.D., μM) HCT116) was 2.4 ± 0.9 µM; in test [2] (Homo sapiens, LoVo, 72 h, read-out: Antiproliferative activity (IC50 ± S.D., μM) LoVo) it was 2.4 ± 1.4 µM; in test [3], 6.8 ± 0.5 µM. Moreover, the “Interaction with SN38” value in test [2] (LoVo line) is given as “synergism”. Besides, the Interaction with taxol result in test [2] (LoVo line) was “synergism”. In addition, in the test on H460 primary tumor, the “LCK (Log10 Cell Kill)” value came to 0.6. Also, the “Max TWI (day 56) (Maximal Tumor weight inhibition achieved)” value in the test with H460 primary tumor (listed as Compound of example 2) was 58* %; in the test on H460 primary tumor (listed as compound of example 2), 58%. The inhibition at 2.2 µM was determined as 92% in test [4] (NCI-H460, 2.2 μM) and 51% in test [5] (NCI-H460, 2.2 μM). In addition, the inhibition at 5.7 µM in test [4] (NCI-H460, 5.7 μM) is 100%; in test [5] (NCI-H460, 5.7 μM), 92%.
